Assay results taken from patent US9493446B2, “Orexin receptor antagonists which are [ortho bi-(hetero-)aryl]-[2-(meta bi-(hetero-)aryl)-pyrrolidin-1-yl]-methanone derivatives” (Actelion Pharmaceuticals Ltd, priority 2012, dated 2016).
Where two headings read alike, the source gives them in different places.

Columns and labels:
[1] = target: orexin-1 (Homo sapiens (Human), UniProt O43613); assay: Intracellular calcium measurement (FLIPR), CHO cells expressing human orexin-1 receptor, 3 nM orexin-A; format: cell-based; details: read-out: IC50 OX1
Method in brief: (§1)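 Antagonist is added 120 min before agonist. Fluo-4 AM-loaded CHO cells carry human orexin-1 or orexin-2 receptor, and calcium is read by FLIPR.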

[2] = target: human orexin-2 receptor (Homo sapiens (Human), UniProt O43614); assay: Intracellular calcium measurement (FLIPR), CHO cells expressing human orexin-2 receptor, 3 nM orexin-A; format: cell-based; details: read-out: IC50 OX2
Method in brief: as §1

[3] = CHO cells expressing human orexin-1 receptor, FLIPR, 3 nM orexin-A, geometric mean if determined several times
[4] = CHO cells expressing human orexin-2 receptor, FLIPR, 3 nM orexin-A, geometric mean if determined several times

Sequence of orexin-1 (O43613 whole entry): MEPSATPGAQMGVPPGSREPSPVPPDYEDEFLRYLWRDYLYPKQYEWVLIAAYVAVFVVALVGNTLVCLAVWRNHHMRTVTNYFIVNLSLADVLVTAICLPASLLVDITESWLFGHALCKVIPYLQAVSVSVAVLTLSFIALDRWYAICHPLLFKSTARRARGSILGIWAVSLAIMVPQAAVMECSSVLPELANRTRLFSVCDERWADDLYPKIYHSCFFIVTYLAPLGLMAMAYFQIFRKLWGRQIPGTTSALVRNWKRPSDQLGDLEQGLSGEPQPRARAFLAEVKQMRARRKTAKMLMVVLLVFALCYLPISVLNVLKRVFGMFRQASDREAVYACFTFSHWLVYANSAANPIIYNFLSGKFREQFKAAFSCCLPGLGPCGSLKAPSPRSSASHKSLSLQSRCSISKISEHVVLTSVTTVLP
Sequence of human orexin-2 receptor (O43614 whole entry): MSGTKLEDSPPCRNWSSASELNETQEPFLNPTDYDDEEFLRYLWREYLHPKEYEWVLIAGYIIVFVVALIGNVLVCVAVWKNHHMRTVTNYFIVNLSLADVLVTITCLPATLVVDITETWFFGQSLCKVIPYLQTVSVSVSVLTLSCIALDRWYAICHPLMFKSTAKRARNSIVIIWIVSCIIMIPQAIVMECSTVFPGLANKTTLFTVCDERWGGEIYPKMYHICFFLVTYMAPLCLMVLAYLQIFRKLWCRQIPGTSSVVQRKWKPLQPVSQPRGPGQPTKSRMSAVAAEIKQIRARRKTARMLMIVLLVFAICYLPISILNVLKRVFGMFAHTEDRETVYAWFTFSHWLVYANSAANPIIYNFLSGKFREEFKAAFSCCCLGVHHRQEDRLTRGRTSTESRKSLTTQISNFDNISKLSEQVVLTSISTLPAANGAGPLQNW

Row | Compound | IC50 [1, 3] [µM] | IC50 [2, 4] [µM] | IC50 [1] [µM] | IC50 [2] [µM]
1 | Cc1ccc(-c2ccccn2)c(C(=O)N2CCC[C@H]2c2nc(-c3ccccc3OC(F)F)no2)c1 [compound 191, {(S)-2-[3-(2-Difluoromethoxy-phenyl)-[1,2,4]oxadiazol-5-yl]-pyrrolidin-1-yl}-(5-methyl-2-pyridin-2-yl-phenyl)-methanone] | 0.119 | 0.027 |  | 
2 | O=C(c1cccs1)N1CCC[C@H]1c1nc(-c2ccccc2)no1 [Ref 1] | > 8.5 | > 10 |  | 
3 | CCOc1cnccc1-c1noc([C@@H]2CCCN2C(=O)c2cc(C)ccc2-n2nccn2)n1 [compound 55, {(S)-2-[3-(3-Ethoxy-pyridin-4-yl)-[1,2,4]oxadiazol-5-yl]-pyrrolidin-1-yl}-(5-methyl-2-[1,2,3]triazol-2-yl-phenyl)-methanone] | 0.241 | 0.041 |  | 
4 | {(S)-2-[5-(3-Chloro-2-methyl-phenyl)-[1,3,4]oxadiazol-2-yl]-pyrrolidin-1-yl}-[3-(2-chloro-phenyl)-5-methyl-isoxazol-4-yl]-methanone [Reference compound 9, reference compound] |  | 0.242 | 0.853 | 
5 | COc1ccc(C)cc1-c1nc([C@@H]2CCCN2C(=O)c2cc(C)ccc2-n2nccn2)no1 [compound 411, {(S)-2-[5-(2-Methoxy-5-methyl-phenyl)-[1,2,4]oxadiazol-3-yl]-pyrrolidin-1-yl}-(5-methyl-2-[1,2,3]triazol-2-yl-phenyl)-methanone] | 0.099 | 0.009 |  | 
6 | COc1c(F)cccc1-c1noc([C@@H]2CCCN2C(=O)c2ccc(C)cc2-n2nccn2)n1 [compound 195, {(S)-2-[3-(3-Fluoro-2-methoxy-phenyl)-[1,2,4]oxadiazol-5-yl]-pyrrolidin-1-yl}-(4-methyl-2-[1,2,3]triazol-2-yl-phenyl)-methanone] | 0.071 | 0.011 |  | 
7 | Cc1cc(C)cc(-c2nnc([C@@H]3CCCN3C(=O)c3cc(C)ccc3-n3nccn3)o2)c1 [Example 451, {(S)-2-[5-(3,5-Dimethyl-phenyl)-[1,3,4]oxadiazol-2-yl]-pyrrolidin-1-yl}-(5-methyl-2-[1,2,3]triazol-2-yl-phenyl)-methanone] | 0.535 | 0.326 |  | 
8 | Cc1ccc(C(=O)N2CCC[C@@]2(C)c2nnc(-c3cccc(Cl)c3C)[nH]2)c(-n2nccn2)c1 [compound 551] | 0.043 | 0.024 |  | 
9 | Cc1ncc(C(=O)N2CCC[C@H]2c2nc(-c3cccc(Cl)c3C)no2)c(-c2cccc(Cl)c2)n1 [compound 127] | 0.581 |  |  | 0.125
10 | COc1ccc(-n2nccn2)c(C(=O)N2CCC[C@H]2c2nc(-c3cccc(Cl)c3C)no2)c1 [compound 100] |  | 0.008 | 0.092 | 
11 | COc1cc(C)cc(-c2nc([C@@H]3CCCN3C(=O)c3cc(Cl)ccc3-n3nccn3)no2)c1 [compound 415] | 0.193 |  |  | 0.049
12 | COc1cc(C(=O)N2CCC[C@H]2c2nnc(-c3cccc(Cl)c3C)o2)c(-n2nccn2)cc1C [compound 445] | 0.157 |  |  | 0.009
13 | COc1ccc(C)c(-c2nc([C@@H]3CCCN3C(=O)c3cc(Cl)ccc3-n3nccn3)no2)c1 [compound 416] |  | 0.02 | 0.152 | 
14 | Cc1cccc(-n2nccn2)c1C(=O)N1CCC[C@H]1c1nc(-c2ccccc2OC(F)(F)F)no1 [compound 149, (2-Methyl-6-[1,2,3]triazol-2-yl-phenyl)-{(S)-2-[3-(2-trifluoromethoxy-phenyl)-[1,2,4]oxadiazol-5-yl]-pyrrolidin-1-yl}-methanone] | 0.184 | 0.085 |  | 
15 | Cc1nc(C(=O)N2CCC[C@H]2c2nc(-c3cccc(Cl)c3C)no2)c(-c2ccccc2F)s1 [compound 124] | 0.145 | 0.077 |  | 
16 | Cc1c(Cl)cccc1-c1noc([C@@H]2CCCN2C(=O)c2ccc(Cl)cc2-n2nccn2)n1 [compound 121] |  | 0.015 | 0.145 | 
17 | COc1c(F)cccc1-c1noc([C@@H]2CCCN2C(=O)c2ccc(Cl)cc2-n2nccn2)n1 [compound 204] | 0.065 |  |  | 0.01
